What was measured:
[1] = DFT-predicted CO2 binding free energy and charge/bond-order analysis of phosphido-boranes
Protocol: (§1) All Density Functional Theory calculations were performed using the Jaguar v10.9 software from Schrodinger Inc. All calculations utilized the M06-2X meta-GGA functional with the D3 empirical correction for London Dispersion forces.^21, 22
(§2) All atoms were described by the 6-311G**++ Pople basis set,^23 augmented with polarization and diffuse functions.
(§3) All calculations included a continuum solvent treatment described by the Polarizable Continuum Model (CPCM).^24
(§4) Unless otherwise noted, we used solvent parameters matching tetrahydrofuran (dielectric constant=7.6, probe radius=2.52).
(§5) Vibrational frequency calculations were performed to confirm that all geometries are true minima (no negative eigenmodes of the Hessian) and to compute thermochemical properties such as enthalpy (H), entropy (S), and free energies (G) at 298.15 K. Because librational modes are hindered in solvent media, we corrected our free energies by reducing translational and rotational entropy modes by 50%.

[2] = DFT transition state barrier for CO2 binding; conditions: Li+ coordinated to a CO2 oxygen and the hydrides of BH3−
Protocol: as §1, §2, §3, §4, §5

[3] = CO2 gas bubbled through phosphido-borane salt in THF, NMR analysis; conditions: CO2 at 1 atm, room temperature
Protocol: Here 0.2218 g of the resulting phosphido-borane was dissolved in 3 ml of tetrahydrofuran (THF) in a 10 ml valve. Here 2 ml of THF was used to dissolve 0.1856 g of lithium bis(trimethylsilyl)amide (LiHMDS). The solution of LiHMDS was added drop wise to the solution of Li[Ph2PBH3] to minimize side reactions.
CO2 gas was then bubbled through lithiated anionic phosphido-borane salt at 1 atm and room temperature for about 10 mins to saturate it with CO2.
A typical one pot procedure for preparing the CO2 adducts was adding a solution of Ph2PHBH3 (5.314 mmol, in 4 ml of THF) to solution of MHMDs (5.314 mmol, in 4 ml of THF) dropwisely. An aliquot of the resulting was analyzed with the nmr to confirm the complete formation of M(Ph2PBH3) salt. The bulk solution was then saturated with CO2 gas under standard atmospheric pressure and temperature. The product was then crushed out with hexanes resulting in a whitish precipitate. Yield 98.5%

With “anionic diphenylphosphido-borane [BoPh 4]” the “increase in binding energy on increasing counterion distance” value ([1]; Li+ distance from the O—BH3 pocket increased by 0.35 Å) was “+5.9 kcal”, the “increase of overall ΔG by explicit solvation” value ([1]; explicit THF solvation vs continuum) was “+2.9 kcal/mol” and the “reduction of ΔG‡ relative to Na+” value [2] was ~2 kcal/mol. The “CO2 binding observed in experiment” value ([3]; listed as LiPh2PBH3) was “binds successfully with the CO2 molecule” and the “CO2 binding observed in experiment” value ([3]; listed as lithiated anionic phosphido-borane salt) was “formation of P—CO2 adducts”.

Source: patent US20250352981A1, “PHOSPHOROUS BORON-BONDED COMPOUNDS FOR CAPTURING, STORING AND/OR UTILIZING CARBON DIOXIDE AND RELATED PRODUCTS COMPOSITIONS METHODS AND SYSTEMS” (California Institute of Technology, priority 2024, published 2025)
